Assay results from patent US10721934B2, “Enhanced preservative” (Arch Chemicals, Inc., priority 2013, dated 2020).
In brackets after ≈: the same amount, converted by molar mass.

What was measured:
Type in all cases: cell-based
Staphylococcus aureus = assay: MIC test, 96 well microtiter plate; settings: single chemical
Method: (§1) MIC set up: A 96 well microtiter plate Minimum Inhibitory Concentration (MIC) test was run in broth suitable for the test organism. Serially diluted actives were prepared in sterilized water, and the start-up concentration varied depending on the efficacy range. Inocula prepared in 2× suitable broth was added into each well, and the final concentrations of bacteria were adjusted to approximately 5×10^5.
(§2) Further MIC tests were conducted using different amine compounds in combination with a pyrithione and two different isothiazolinones. The procedures described in Example No. 1 were used.

Escherichia coli = assay: MIC test, 96 well microtiter plate; settings: single chemical
Method: as §1, §2

Candida albicans = assay: MIC test, 96 well microtiter plate; settings: single chemical
Method: as §1, §2

Aureobasidium pullulans = assay: MIC test, 96 well microtiter plate; settings: single chemical
Method: as §1, §2

Aspergillus brasiliensis = assay: MIC test, 96 well microtiter plate; settings: single chemical
Method: as §1, §2

[1] = tested on: Pseudomonas aeruginosa ATCC 15442; assay: Minimum Inhibitory Concentration (MIC) test, 96 well microtiter plate; settings: for biocide enhancing effect on zinc pyrithione: MIC of blends with ZnPT, Table 1; for MIC: Pseudomonas aeruginosa, ATCC15442, single chemical
Method: Microorganisms: Pseudomonas aeruginosa ATCC 15442
as §1

[2] = tested on: mixed bacterial inoculum (Pseudomonas aeruginosa, Enterobacter cloacae, Escherichia coli, Acinetobacter calcoaceticus); assay: Repeated inoculation of standard acrylic paint, streak plate rating
Method: In the following experiments, a pyrithione, an isothiazolinone, and a biocide enhancing agent in accordance with the present disclosure were combined with a standard acrylic paint. The concentrations of the pyrithione, the isothiazolinone and the biocide enhancing agent were varied. The pyrithione, the isothiazolinone and the biocide enhancing agent were added alone and in various mixtures to the standard acrylic paint.
The acrylic paint was then inoculated three times using a mixed bacterial inoculum. The bacterial inoculum, which comprised a bacterial suspension in water, contained the following four bacteria in equal proportions.
The samples were streak plated at 24, 48, and 72 hours after inoculation. The streak plates were rated as follows;

CCCCn1sc2ccccc2c1=O [BBIT]
Minimum Inhibitory Concentration (Staphylococcus aureus): 5.0 ppm
Minimum Inhibitory Concentration (Escherichia coli): 80.0 ppm
Minimum Inhibitory Concentration (Candida albicans): 3.75 ppm
Minimum Inhibitory Concentration (Aureobasidium pullulans): 2.5 ppm
Minimum Inhibitory Concentration (Aspergillus brasiliensis): 1.9 ppm

CCCCCCCCCCCCN [DDA, 1-dodecylamine]
biocide enhancing effect on the isothiazolin ([1]; MIC of blends with BIT, Table 2): had an enhancing effect on the isothiazolin
biocide enhancing effect on zinc pyrithione [1]: enhance the effectiveness of the zinc pyrithione
MIC [1]: 200 µg/mL (≈ 1080 µM)
streak plate rating ([2]; Set Four, DDA 600 ppm, 1st inoculation 24 h): 5 (>45 viable microorganisms Severely contaminated)
streak plate rating ([2]; Set Four, DDA 600 ppm, 1st inoculation 48 h): 2 (6-15 viable microorganisms Lightly contaminated)
streak plate rating ([2]; Set Four, DDA 600 ppm, 1st inoculation 72 h): 0
streak plate rating ([2]; Set Four, DDA 600 ppm, 2nd inoculation 24 h): 5 (>45 viable microorganisms Severely contaminated)
streak plate rating ([2]; Set Four, DDA 600 ppm, 2nd inoculation 48 h): 5 (>45 viable microorganisms Severely contaminated)
streak plate rating ([2]; Set Four, DDA 600 ppm, 2nd inoculation 72 h): 5 (>45 viable microorganisms Severely contaminated)
streak plate rating ([2]; Set Four, DDA 600 ppm, 3rd inoculation 24 h): 5 (>45 viable microorganisms Severely contaminated)
streak plate rating ([2]; Set Four, DDA 600 ppm, 3rd inoculation 48 h): 5 (>45 viable microorganisms Severely contaminated)
streak plate rating ([2]; Set Four, DDA 600 ppm, 3rd inoculation 72 h): 5 (>45 viable microorganisms Severely contaminated)
streak plate rating ([2]; Set One, DDA 600 ppm, 1st inoculation 24 h): 5 (>45 viable microorganisms Severely contaminated)
streak plate rating ([2]; Set One, DDA 600 ppm, 1st inoculation 48 h): 5 (>45 viable microorganisms Severely contaminated)
streak plate rating ([2]; Set One, DDA 600 ppm, 1st inoculation 72 h): 5 (>45 viable microorganisms Severely contaminated)
streak plate rating ([2]; Set One, DDA 600 ppm, 2nd inoculation 24 h): 5 (>45 viable microorganisms Severely contaminated)
streak plate rating ([2]; Set One, DDA 600 ppm, 2nd inoculation 48 h): 5 (>45 viable microorganisms Severely contaminated)
streak plate rating ([2]; Set One, DDA 600 ppm, 3rd inoculation 24 h): 5 (>45 viable microorganisms Severely contaminated)
streak plate rating ([2]; Set One, DDA 600 ppm, 3rd inoculation 48 h): 5 (>45 viable microorganisms Severely contaminated)
streak plate rating ([2]; Set One, DDA 600 ppm, 3rd inoculation 72 h): 5 (>45 viable microorganisms Severely contaminated)
streak plate rating ([2]; Set One, DDA 900 ppm, 1st inoculation 24 h): 5 (>45 viable microorganisms Severely contaminated)
streak plate rating ([2]; Set One, DDA 900 ppm, 1st inoculation 48 h): 5 (>45 viable microorganisms Severely contaminated)
streak plate rating ([2]; Set One, DDA 900 ppm, 1st inoculation 72 h): 5 (>45 viable microorganisms Severely contaminated)
streak plate rating ([2]; Set One, DDA 900 ppm, 2nd inoculation 24 h): 5 (>45 viable microorganisms Severely contaminated)
streak plate rating ([2]; Set One, DDA 900 ppm, 2nd inoculation 48 h): 5 (>45 viable microorganisms Severely contaminated)
streak plate rating ([2]; Set One, DDA 900 ppm, 3rd inoculation 24 h): 5 (>45 viable microorganisms Severely contaminated)
streak plate rating ([2]; Set One, DDA 900 ppm, 3rd inoculation 48 h): 5 (>45 viable microorganisms Severely contaminated)
streak plate rating ([2]; Set One, DDA 900 ppm, 3rd inoculation 72 h): 5 (>45 viable microorganisms Severely contaminated)
streak plate rating ([2]; Set One, DDA 1200 ppm, 1st inoculation 24 h): 5 (>45 viable microorganisms Severely contaminated)
streak plate rating ([2]; Set One, DDA 1200 ppm, 1st inoculation 48 h): 5 (>45 viable microorganisms Severely contaminated)
streak plate rating ([2]; Set One, DDA 1200 ppm, 1st inoculation 72 h): 5 (>45 viable microorganisms Severely contaminated)
streak plate rating ([2]; Set One, DDA 1200 ppm, 2nd inoculation 24 h): 5 (>45 viable microorganisms Severely contaminated)
streak plate rating ([2]; Set One, DDA 1200 ppm, 2nd inoculation 48 h): 5 (>45 viable microorganisms Severely contaminated)
streak plate rating ([2]; Set One, DDA 1200 ppm, 3rd inoculation 24 h): 5 (>45 viable microorganisms Severely contaminated)
streak plate rating ([2]; Set One, DDA 1200 ppm, 3rd inoculation 48 h): 5 (>45 viable microorganisms Severely contaminated)
streak plate rating ([2]; Set One, DDA 1200 ppm, 3rd inoculation 72 h): 5 (>45 viable microorganisms Severely contaminated)
streak plate rating ([2]; Set One, DDA 1800 ppm, 1st inoculation 24 h): 2 (6-15 viable microorganisms Lightly contaminated)
streak plate rating ([2]; Set One, DDA 1800 ppm, 1st inoculation 48 h): 3 (16-30 viable microorganisms Moderately contaminated)
streak plate rating ([2]; Set One, DDA 1800 ppm, 1st inoculation 72 h): 1 (1-5 viable microorganisms Very lightly contaminated)
streak plate rating ([2]; Set One, DDA 1800 ppm, 2nd inoculation 24 h): 5 (>45 viable microorganisms Severely contaminated)
streak plate rating ([2]; Set One, DDA 1800 ppm, 2nd inoculation 48 h): 5 (>45 viable microorganisms Severely contaminated)
streak plate rating ([2]; Set One, DDA 1800 ppm, 3rd inoculation 24 h): 5 (>45 viable microorganisms Severely contaminated)
streak plate rating ([2]; Set One, DDA 1800 ppm, 3rd inoculation 48 h): 5 (>45 viable microorganisms Severely contaminated)
streak plate rating ([2]; Set One, DDA 1800 ppm, 3rd inoculation 72 h): 5 (>45 viable microorganisms Severely contaminated)
streak plate rating ([2]; Set Two, DDA alone, ppm not given, 1st inoculation 24 h): 5 (>45 viable microorganisms Severely contaminated)
streak plate rating ([2]; Set Two, DDA alone, ppm not given, 1st inoculation 48 h): 5 (>45 viable microorganisms Severely contaminated)
streak plate rating ([2]; Set Two, DDA alone, ppm not given, 1st inoculation 72 h): 5 (>45 viable microorganisms Severely contaminated)
streak plate rating ([2]; Set Two, DDA alone, ppm not given, 2nd inoculation 24 h): 5 (>45 viable microorganisms Severely contaminated)
streak plate rating ([2]; Set Two, DDA alone, ppm not given, 2nd inoculation 48 h): 5 (>45 viable microorganisms Severely contaminated)
streak plate rating ([2]; Set Two, DDA alone, ppm not given, 2nd inoculation 72 h): 5 (>45 viable microorganisms Severely contaminated)
streak plate rating ([2]; Set Two, DDA alone, ppm not given, 3rd inoculation 24 h): 5 (>45 viable microorganisms Severely contaminated)
streak plate rating ([2]; Set Two, DDA alone, ppm not given, 3rd inoculation 48 h): 5 (>45 viable microorganisms Severely contaminated)
streak plate rating ([2]; Set Two, DDA alone, ppm not given, 3rd inoculation 72 h): 5 (>45 viable microorganisms Severely contaminated)

CCCCCCCCCCCCN1CCOCC1 [DDM, 4-Dodecylmorpholine]
streak plate rating ([2]; Set Three, DDM 1200 ppm, 1st inoculation 24 h): 5 (>45 viable microorganisms Severely contaminated)
streak plate rating ([2]; Set Three, DDM 1200 ppm, 1st inoculation 48 h): 5 (>45 viable microorganisms Severely contaminated)
streak plate rating ([2]; Set Three, DDM 1200 ppm, 1st inoculation 72 h): 5 (>45 viable microorganisms Severely contaminated)
streak plate rating ([2]; Set Three, DDM 1200 ppm, 2nd inoculation 24 h): 5 (>45 viable microorganisms Severely contaminated)
streak plate rating ([2]; Set Three, DDM 1200 ppm, 2nd inoculation 48 h): 5 (>45 viable microorganisms Severely contaminated)
streak plate rating ([2]; Set Three, DDM 1200 ppm, 2nd inoculation 72 h): 5 (>45 viable microorganisms Severely contaminated)
streak plate rating ([2]; Set Three, DDM 1200 ppm, 3rd inoculation 24 h): 5 (>45 viable microorganisms Severely contaminated)
streak plate rating ([2]; Set Three, DDM 1200 ppm, 3rd inoculation 48 h): 5 (>45 viable microorganisms Severely contaminated)
streak plate rating ([2]; Set Three, DDM 1200 ppm, 3rd inoculation 72 h): 5 (>45 viable microorganisms Severely contaminated)

CCCCCCCC[N+](C)(C)[O-] [DMOA Oxide, N,N-dimethyloctylamine-n-oxide]
MIC (Staphylococcus aureus; Staphylococcus aureus, read-out: Minimum Inhibitory Concentration): 250 µg/mL
MIC (Escherichia coli; Escherichia coli, read-out: Minimum Inhibitory Concentration): 750 µg/mL
MIC (Candida albicans; Candida albicans, read-out: Minimum Inhibitory Concentration): 375 µg/mL
MIC (Aureobasidium pullulans; Aureobasidium pullulans, read-out: Minimum Inhibitory Concentration): 500 µg/mL
MIC (Aspergillus brasiliensis; Aspergillus brasiliensis, read-out: Minimum Inhibitory Concentration): 500 µg/mL
Minimum Inhibitory Concentration (Aspergillus brasiliensis): 500 ppm

CCCCCCCCCCCCCCCCCCN(C)C [DMODA, N,N-Dimethyloctadecylamine]
biocide enhancing effect on zinc pyrithione [1]: enhance the effectiveness of the zinc pyrithione
MIC [1]: > 640 µg/mL
